# Measurements published in article PMC7490411 (Signal Transduction and Targeted Therapy, 2020).
# Key:
# AAK1 = experiment: KINOMEscan; assay type: binding; settings: 1000 nM
# WNK3 = experiment: KINOMEscan; assay type: binding; settings: 1000 nM
# [1] = tested on: RPS6KA4(Kin.Dom.2-C-terminal); experiment: KINOMEscan; assay type: binding; settings: 1000 nM
# RIOK3 = experiment: KINOMEscan; assay type: binding; settings: 1000 nM
# PIM2 = experiment: KINOMEscan; assay type: binding; settings: 1000 nM
# RIPK4 = experiment: KINOMEscan; assay type: binding; settings: 1000 nM
# TSSK3 = experiment: KINOMEscan; assay type: binding; settings: 1000 nM
# PIKFYVE = experiment: KINOMEscan; assay type: binding; settings: 1000 nM
# PCTK3 = experiment: KINOMEscan; assay type: binding; settings: 1000 nM
# DDR2 = experiment: KINOMEscan; assay type: binding; settings: 1000 nM
# PRKCI = experiment: KINOMEscan; assay type: binding; settings: 1000 nM
# EPHA5 = experiment: KINOMEscan; assay type: binding; settings: 1000 nM
# [2] = tested on: REC-1 cell (MCL)-inoculated xenograft; experiment: REC-1 cell subcutaneous xenograft tumor model; assay type: in vivo; settings: for TGI: REC-1 xenograft, 14 days
# [3] = tested on: RSK1(Kin.Dom.1-N-terminal); experiment: KINOMEscan; assay type: binding; settings: 1000 nM
# STK16 = experiment: KINOMEscan; assay type: binding; settings: 1000 nM
# PIK3C2B = experiment: KINOMEscan; assay type: binding; settings: 1000 nM
# CLK4 = experiment: KINOMEscan; assay type: binding; settings: 1000 nM
# GRK3 = experiment: KINOMEscan; assay type: binding; settings: 1000 nM
# NEK11 = experiment: KINOMEscan; assay type: binding; settings: 1000 nM
# PRKR = experiment: KINOMEscan; assay type: binding; settings: 1000 nM
# EPHA7 = experiment: KINOMEscan; assay type: binding; settings: 1000 nM
# LZK = experiment: KINOMEscan; assay type: binding; settings: 1000 nM
# PAK1 = experiment: KINOMEscan; assay type: binding; settings: 1000 nM
# EPHB6 = experiment: KINOMEscan; assay type: binding; settings: 1000 nM
# p38-gamma = experiment: KINOMEscan; assay type: binding; settings: 1000 nM
# [4] = tested on: NK cells co-seeded with Mino cells; experiment: IFN-γ secretion ELISA, NK cells co-cultured with Mino cells in presence of Rituximab; assay type: cell-based, human; settings: Mino co-culture; 0.1 to 3 μM
# TGFBR1 = experiment: KINOMEscan; assay type: binding; settings: 1000 nM
# CLK3 = experiment: KINOMEscan; assay type: binding; settings: 1000 nM
# RIPK5 = experiment: KINOMEscan; assay type: binding; settings: 1000 nM
# EPHA3 = experiment: KINOMEscan; assay type: binding; settings: 1000 nM
# YSK4 = experiment: KINOMEscan; assay type: binding; settings: 1000 nM
# EGFR(L861Q) = experiment: KINOMEscan; assay type: binding; settings: 1000 nM
# ABL1-phosphorylated = experiment: KINOMEscan; assay type: binding; settings: 1000 nM
# [5] = tested on: JAK1(JH2domain-pseudokinase); experiment: KINOMEscan; assay type: binding; settings: 1000 nM
# ALK = experiment: KINOMEscan; assay type: binding; settings: 1000 nM
# MEK1 = experiment: KINOMEscan; assay type: binding; settings: 1000 nM
# LCK = experiment: KINOMEscan; assay type: binding; settings: 1000 nM
# BRK = experiment: KINOMEscan; assay type: binding; settings: 1000 nM
# MYLK4 = experiment: KINOMEscan; assay type: binding; settings: 1000 nM
# MEK5 = experiment: KINOMEscan; assay type: binding; settings: 1000 nM
# PDGFRA = experiment: KINOMEscan; assay type: binding; settings: 1000 nM
# ANKK1 = experiment: KINOMEscan; assay type: binding; settings: 1000 nM
# [6] = tested on: ABL1(T315I)-phosphorylated; experiment: KINOMEscan; assay type: binding; settings: 1000 nM
# ERK3 = experiment: KINOMEscan; assay type: binding; settings: 1000 nM
# WEE1 = experiment: KINOMEscan; assay type: binding; settings: 1000 nM
# EGFR(G719S) = experiment: KINOMEscan; assay type: binding; settings: 1000 nM
# ERBB4 = experiment: KINOMEscan; assay type: binding; settings: 1000 nM
# TRKB = experiment: KINOMEscan; assay type: binding; settings: 1000 nM
# NEK9 = experiment: KINOMEscan; assay type: binding; settings: 1000 nM
# CDK4 = experiment: KINOMEscan; assay type: binding; settings: 1000 nM
# PIP5K2C = experiment: KINOMEscan; assay type: binding; settings: 1000 nM
# NDR1 = experiment: KINOMEscan; assay type: binding; settings: 1000 nM
# PIP5K1A = experiment: KINOMEscan; assay type: binding; settings: 1000 nM
# [7] = tested on: ABL1(T315I)-nonphosphorylated; experiment: KINOMEscan; assay type: binding; settings: 1000 nM
# ERBB2 = experiment: KINOMEscan; assay type: binding; settings: 1000 nM
# ULK3 = experiment: KINOMEscan; assay type: binding; settings: 1000 nM
# FLT3-autoinhibited = experiment: KINOMEscan; assay type: binding; settings: 1000 nM
# MAP4K4 = experiment: KINOMEscan; assay type: binding; settings: 1000 nM
smiles,measurement,setting,value
C=CC(=O)Nc1cc(Nc2cc(-c3cccc(NC(=O)c4cc5c(s4)CCCC5)c3C)cn(C)c2=O)ccc1N1CCN(CC)CC1 [CHMFL-BTK-85],Percent Control,AAK1,82%
same,Percent Control,WNK3,100%
same,Percent Control,[1],100%
same,Percent Control,RIOK3,100%
same,Percent Control,PIM2,87%
same,Percent Control,RIPK4,100%
same,Percent Control,TSSK3,100%
same,Percent Control,PIKFYVE,78%
same,Percent Control,PCTK3,86%
same,Percent Control,DDR2,100%
same,Percent Control,PRKCI,100%
same,Percent Control,EPHA5,100%
same,TGI,[2]; 100 mg/kg/day,65%
same,TGI,[2]; 150 mg/kg/day,79%
same,toxicity signs in REC-1 xenograft model,"[2]; mouse, 100 mg/kg/day",without obvious signs of toxicity
same,Percent Control,[3],100%
same,Percent Control,STK16,68%
same,Percent Control,PIK3C2B,92%
same,Percent Control,CLK4,96%
same,Percent Control,GRK3,100%
same,Percent Control,NEK11,100%
same,Percent Control,PRKR,49%
same,Percent Control,EPHA7,100%
same,Percent Control,LZK,100%
same,Percent Control,PAK1,75%
same,Percent Control,EPHB6,69%
same,Percent Control,p38-gamma,62%
same,inhibition of Rituximab-induced IFN-γ secretion in NK cells,[4],no apparent inhibition
same,Percent Control,TGFBR1,88%
same,Percent Control,CLK3,80%
same,Percent Control,RIPK5,98%
same,Percent Control,EPHA3,98%
same,Percent Control,YSK4,100%
same,Percent Control,EGFR(L861Q),94%
same,Percent Control,ABL1-phosphorylated,72%
same,Percent Control,[5],96%
same,Percent Control,ALK,86%
same,Percent Control,MEK1,100%
same,Percent Control,LCK,86%
same,Percent Control,BRK,21%
same,Percent Control,MYLK4,94%
same,Percent Control,MEK5,100%
same,Percent Control,PDGFRA,100%
same,Percent Control,ANKK1,100%
same,Percent Control,[6],100%
same,Percent Control,ERK3,100%
same,Percent Control,WEE1,100%
same,Percent Control,EGFR(G719S),88%
same,Percent Control,ERBB4,91%
same,Percent Control,TRKB,100%
same,Percent Control,NEK9,100%
same,Percent Control,CDK4,100%
same,Percent Control,PIP5K2C,85%
same,Percent Control,NDR1,100%
same,Percent Control,PIP5K1A,96%
same,Percent Control,[7],94%
same,Percent Control,ERBB2,99%
same,Percent Control,ULK3,100%
same,Percent Control,FLT3-autoinhibited,100%
same,Percent Control,MAP4K4,90%
